Laboratory results as given in patent US12679850B2, “TYK2 inhibitors and uses thereof” (Alumis Inc., priority 2020, dated 2026).

Experiments:
[1] = target: T1, human TYK2 (JH2domain-pseudokinase) (Homo sapiens, UniProt P29597); experiment: TYK2 JH2 domain binding assay (KINOMEscan); conditions: 11-point 3-fold dilution, top concentration 30,000 nM, duplicate
T1 construct: host or cells: transiently transfected HEK293 cells; unpurified extract used
Procedure: Binding constants for the compounds described herein against the JH2 domain were determined by the following protocol for a KINOMEscan® assay (DiscoveRx). A fusion protein of a partial length construct of human TYK2 (JH2domain-pseudokinase) (amino acids G556 to D888 based on reference sequence NP_003322.3) and the DNA binding domain of NFkB is expressed in transiently transfected HEK293 cells. From these HEK 293 cells, extracts are prepared in M-PER extraction buffer (Pierce) in the presence of Protease Inhibitor Cocktail Complete (Roche) and Phosphatase Inhibitor Cocktail Set II (Merck) per manufacturers' instructions. The TYK2 (JH2domain-pseudokinase) fusion protein is labeled with a chimeric double-stranded DNA tag containing the NFkB binding site fused to an amplicon for qPCR readout, which is added directly to the expression extract (the final concentration of DNA-tag in the binding reaction is 0.1 nM). […]
The binding reaction is assembled by combining 16 μl of DNA-tagged kinase extract, 3.8 μl liganded affinity beads, and 0.18 μl test compound (PBS/0.05% Tween 20/10 mM DTT/0.1% BSA/2 μg/ml sonicated salmon sperm DNA)]. […] Kds were determined using an 11-point 3-fold compound dilution series with three DMSO control points. […]
Test compounds are prepared as 111× stocks in 100% DMSO. Kds were determined using an 11-point 3-fold compound dilution series with three DMSO control points. […]

[2] = tested on: pSTAT5 in Human PBMC; experiment: INFα induced pSTAT5 in human PBMC; type: cell-based; conditions: fresh human PBMC, compound 1 hour, INFα 5000 units/ml for 15 minutes, MSD Phospho STAT5 kit; read-out: p-STAT5 IC50
Procedure: Fresh Human PBMCs were resuspended in RPMI 1640 medium with 10% FBS. Cells were seeded in a round bottom 96-well plate at the concentration of 200,000 cells/well. A 10-point dilution series of test compound (top dose 10 uM, 1:5 dilution) was added to the well using the liquid dispenser (Tecan D300e) and incubated for 1 hour at 37 C. Then human INFα recombinant protein (R&D Systems) was added to the well at the final concentration of 5000 units/ml and incubated for 15 minutes at 37 C. Cell lysates were prepared and analyzed by Phospho STAT5 (Tyr693) Kit (Meso Scale Discovery) following manufacturer's protocol.
For calculation of the inhibition rate, the relative pSTAT5 signal of each well=pSTAT5 signal of each well−the average pSTAT5 signal of baseline.
The inhibition %=(the average pSTAT5 signal of INFα treatment wells−the relative of pSTAT5 signal in each compound containing well)/the average pSTAT5 signal of INFα treatment wells*100%
The curve was plotted as the inhibition % (y-axis) vs. compounds concentration (x-axis) and was fitted with log(inhibitor) vs. normalized response—Variable slope by GraphPad Prism7.0.

T1 sequence (P29597 556-888): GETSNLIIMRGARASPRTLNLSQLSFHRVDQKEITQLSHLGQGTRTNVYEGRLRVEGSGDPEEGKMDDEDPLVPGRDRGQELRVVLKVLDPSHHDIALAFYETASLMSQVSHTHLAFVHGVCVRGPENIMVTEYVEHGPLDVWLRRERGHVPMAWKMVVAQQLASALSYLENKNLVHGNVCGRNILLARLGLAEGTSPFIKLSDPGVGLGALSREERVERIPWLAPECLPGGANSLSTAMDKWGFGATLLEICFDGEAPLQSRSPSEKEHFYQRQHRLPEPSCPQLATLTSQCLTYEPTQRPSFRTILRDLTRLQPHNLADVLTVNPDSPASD

Kd [1]: 0.0022 nM
Compound: [2H]C([2H])([2H])n1nnc2c3cc(cc21)CO[C@@H]1CCC[C@H]1NC(=O)c1cnc2c(NC)cc(nn12)N3 [Example 1]
IC50 [2]: 1.7 nM
